The text below walks through data of patent US20200181153A1, “IMIDAZOPYRIDAZINONE COMPOUNDS AND USES THEREOF” (Aduro Biotech, Inc., priority 2018, published 2020).

Some results are limits rather than exact numbers.

One assay concerns cGAS/STING pathway. Kind of assay: THP1 cell-based cGAS/STING pathway activity assay (luciferase reporter linked to IRF-3 activation). As to conditions: Homo sapiens, THP-1. From the text: A cellular assay can be used to assess the compounds of the invention for their ability to inhibit the cGAS/STING pathway. Cells that express a luciferase-based reporter that is linked to IRF-3 activation are used to determine response as a function of compound concentration. Such an assay is described in Vincent et al., Nature Communications 2017, 8(1):750, doi: 10.1038/s41467-017-00833-9.
A cellular assay can be used to assess the compounds of the invention for their ability to inhibit the cGAS/STING pathway. Cells that express a luciferase-based reporter that is linked to IRF-3 activation are used to determine response as a function of compound concentration. Such an assay is described in Vincent et al., Nature Communications 2017, 8(1):750, doi: 10.1038/s41467-017-00833-9. Compounds of the invention were assessed using similar assay methods in a THP1 cell assay to generate IC50 values.

The next assay addresses T1, Human cGAS (Homo sapiens, UniProt Q8N884).
T1 construct: hexahistidine tag (N, cleaved yes); made in house; host or cells: E. coli BL21 DE3 Rosetta 2
Kind of assay: cGAS biochemical activity assay (ATP levels by Kinase-Glo Max luminescence). The conditions noted are these: human cGAS amino acids 155-522, 25 nM, activated by 1 μM double stranded DNA, 37° C. for 1.25 hours. The protocol:
Human cGAS sequence encoding amino acids 155-522 was cloned into a pET (EMD Millipore) based expression plasmid. The resulting construct contained a tandem N-terminal hexahistidine tag, maltose binding protein fusion followed by a tobacco etch virus protease cleavable linker preceding cGAS amino acids 155-522.
Protein was expressed and purified from E. coli BL21 DE3 Rosetta 2 (EMD Millipore) cells using standard techniques. Cells were grown in 2× yeast extract tryptone medium and expression was initiated via the addition of isopropyl β-D-1-thiogalactopyranoside. Expression proceeded overnight at 18° C. Cells were harvested by centrifugation and subsequently […] via sonication. Insoluble fraction was removed by centrifugation. Maltose binding protein (MBP) fusion proteins were purified on a dextrin sepharose column (GE Healthcare) and the MBP tag was removed using tobacco etch virus protease overnight during dialysis. Protein was further purified on a heparin column (GE Healthcare) and eluted using a NaCl gradient. Column fraction were pooled and further purified on a Superdex 75 gel filtration column (GE Healthcare). Protein was quantified using 280 nm absorbance. Protein was then flash frozen in liquid nitrogen and stored at −80° C., until use.
Potential antagonists were diluted in 100% dimethyl sulfoxide and added to the reaction. Final dimethyl sulfoxide concentration was 5%. The compounds were tested from 250 μM with 5-fold serial dilutions down to 0.000128 μM.
Two complementary DNA oligos (IDT DNA) were annealed by slow cooling from 95° C. The resulting double stranded DNA was used to activate cGAS.
Reactions were performed at 37° C., for 1.25 hours. Reaction buffer: 20 mM Tris HCl pH 9, 100 mM NaCl, 5 mM MgCl2, 0.1 mg/ml bovine gamma globulin, 1 mM adenosine triphosphate, 250 μM guanosine triphosphate, 0.5 mM Tris(2-carboxyethyl)phosphine hydrochloride, 1 μM double stranded DNA and 25 nM purified cGAS protein.
Reactions were stopped and ATP levels in the reaction were measured using a luciferase based assay. Promega Kinase-Glo Max Assay. Luminescence was measured on a plate reader (Molecular Devices). Values were normalized to control wells lacking compound.
On the technique in general: In Kinase-Glo more light means more ATP remaining.

T1 sequence (Q8N884 157-522): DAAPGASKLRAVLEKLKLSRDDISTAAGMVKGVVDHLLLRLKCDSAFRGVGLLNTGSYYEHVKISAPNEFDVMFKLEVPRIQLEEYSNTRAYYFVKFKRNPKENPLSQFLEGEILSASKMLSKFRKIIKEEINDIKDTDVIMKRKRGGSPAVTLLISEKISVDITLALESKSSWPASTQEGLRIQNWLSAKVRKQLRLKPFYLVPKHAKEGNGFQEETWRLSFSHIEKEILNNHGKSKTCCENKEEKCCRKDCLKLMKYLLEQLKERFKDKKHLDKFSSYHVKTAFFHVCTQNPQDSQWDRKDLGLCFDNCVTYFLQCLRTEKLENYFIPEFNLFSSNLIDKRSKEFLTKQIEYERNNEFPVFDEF

By IC50 is commonly meant the concentration that inhibits the measured activity by half. Read a low IC50 as greater potency. As to `Cc1[nH]n2c(-c3ccccc3)c(C#N)nc2c(=O)c1-c1cccc(Cl)c1` [Compound 6, 7-(3-chlorophenyl)-6-methyl-8-oxo-3-phenyl-5,8-dihydroimidazo[1,2-b]pyridazine-2-carbonitrile], the values for the IC50 in the assay on cGAS/STING pathway and on Human cGAS were < 10000 nM and < 1000 nM, respectively.
As to `CCc1ccc(-c2c(C)[nH]n3c(-c4ccccc4)c(C#N)nc3c2=O)cc1` [Compound 13, 7-(4-ethylphenyl)-6-methyl-8-oxo-3-phenyl-5,8-dihydroimidazo[1,2-b]pyridazine-2-carbonitrile], the half-inhibitory concentration (IC50) with cGAS/STING pathway is < 10000 nM; against Human cGAS it was < 1000 nM.
With `Cc1cc(=O)c2nc(C#N)c(-c3ccccc3)n2[nH]1` [Compound 3, 6-methyl-8-oxo-3-phenyl-5,8-dihydroimidazo[1,2-b]pyridazine-2-carbonitrile], the IC50 against Human cGAS was < 1000 nM.
With `COc1cccc(-c2c(C)[nH]n3c(-c4ccccc4)c(C#N)nc3c2=O)c1` [Compound 5, 7-(3-methoxyphenyl)-6-methyl-8-oxo-3-phenyl-5,8-dihydroimidazo[1,2-b]pyridazine-2-carbonitrile], the results for the IC50 in the assay with cGAS/STING pathway and against Human cGAS were < 10000 nM and < 1000 nM, respectively.
